Experimental findings from ChEMBL document CHEMBL5370531, “Design, synthesis and pharmacological evaluation of 2,3-dihydrobenzofuran IRAK4 inhibitors for the treatment of diffuse large B-cell lymphoma” (Eur J Med Chem, 2023) are described below.

In this assay the test system is OCI-Ly10. As to the kind of experiment: Induction of apoptosis in human OCILY10 cells assessed as early apoptotic cells at 1 uM incubated for 48 hrs by Annexin V-FITC/PI staining based flow cytometry (reference value: 5.4 %). It counts as functional.

The structures appear in SMILES notation.

For the compound `Cn1cc(-c2cc3c(cc2NC(=O)c2coc(-c4ccnc(N)c4)n2)CC(C)(C)O3)cn1`, the Activity stood at 54.4%.
